These results are taken from patent US20240376094A2, “SELECTIVE BCL-XL PROTAC COMPOUNDS AND METHODS OF USE” (Les Laboratoires Servier, priority 2021, published 2024).

Each structure is given as a SMILES string.

Type in all cases: cell-based
The subject of assay [1] is EBC-1 lung cancer cell line. Briefly: EBC-1 cell proliferation, CellTiter-Glo assay. As to conditions: Homo sapiens, 120 h; Ebc-1 cell viability, CTG assay, 5 days of treatment; read-out: CTG 5 day Ebc1 GI50. On the procedure: (§1) The ability of the BCL-xL degrader low molecular weight compounds to inhibit cell proliferation and survival was assessed using the Promega CellTiter-Glo® proliferation assay on the EBC-1 lung cancer cell line (RCB1965, obtained from RIKEN.) The cells were cultured in media that is optimal for their growth at 5% CO2, 37° C. in a tissue culture incubator. Prior to seeding for the proliferation assay, the cells were split at least 2 days before the assay to ensure optimal growth density. On the day of seeding, cells were lifted off tissue culture flasks using 0.25% trypsin. Cell viability and cell density were determined using a cell counter (Vi-Cell XR Cell Viability Analyzer, Beckman Coulter). Cells with higher than 85% viability were seeded in white clear bottom 384-well plates (Greiner cat #781098) at a density of 1000 cells per well in 50 μL of standard growth media. Plates were incubated at 37° C. overnight in a tissue culture incubator.
The BCL-xL degrader low molecular weight compounds were prepared to desired concentrations. A series of 10 dilutions were made for each prepared compound. The prepared compounds were then added to the cells resulting in final concentrations of 0.508 nM-10 μM. An acoustic transfer device (Echo555, Beckman Coulter) was used to add the compounds to the cells. Each treatment was tested in triplicate assay plates. Plates were incubated at 37° C. overnight or for 5 days in a tissue culture incubator. The ability of the compounds to inhibit cell proliferation and survival was assessed using the Promega CellTiter-Glo® proliferation assay. Plates were incubated at room temperature for 20 minutes to stabilize luminescent signals prior to reading using a multimode plate reader (PHERAstar FSX Microplate Reader, BMG Labtech).
To evaluate the effect of the compound treatments, luminescent counts of untreated cells were taken the day after seeding (Day 0 readings), and after 5 days of treatment (Day 5 readings). The Day 5 readings of the untreated cells were compared to the Day 0 readings. Assays with at least one cell doubling during the incubation period were considered valid. To evaluate the effect of the drug treatments, luminescent counts from wells containing untreated cells (100% viability) were used to normalize treated samples. The concentrations of treatment required to inhibit 50% of cell growth or survival ([…]) were calculated using a four parameter logistic regression equation.

Another assay deals with T1, HiBiT-tagged BCL-xL (Homo sapiens, UniProt Q07817).
T1 construct: expressed in transfected cells; host or cells: NCI-H1650 (ATCC No. CRL-5883), engineered HiBiT cell line
Briefly: NCI-H1650 BCL-xL protein levels, Nano-Glo HiBiT Lytic Detection. As to conditions: NCI-H1650 expressing HiBiT-tagged BCL-xL, overnight incubation, read-out: Bcl-xl HIBIT NCIH1650 DC50. On the procedure:
as §1, with “degrade BCL-xL protein” for “inhibit cell proliferation and survival”, “Nano-Glo® HiBiT Lytic Detection System. The NCI-H1650 (ATCC No. CRL-5883) was engineered to express HiBiT-tagged BCL-xL. The NCI-H1650 HiBiT” for “CellTiter-Glo® proliferation assay on the EBC-1 lung cancer”, “was” for “(RCB1965, obtained from RIKEN.) The cells were”, “protein level” for “proliferation”, “5000” for “1000”, “30” for “50”
The BCL-xL degrader low molecular weight compounds were prepared to desired concentrations. A series of 10 dilutions were made for each prepared compound. The prepared compounds were then added to the cells resulting in final concentrations of 0.508 nM-10 μM. An acoustic transfer device (Echo555, Beckman Coulter) was used to add the compounds to the cells. Each treatment was tested in triplicate assay plates. Plates were incubated at 37° C. overnight in a tissue culture incubator.
BCL-xL degradation was assessed through the addition of 30 μL of Nano-Glo® HiBiT Lytic Reagent (Promega, cat #N3040), a reagent which lyses cells and contains a furimazine substrate and the large subunit (LgBiT) used in NanoLuc® Binary Technology. The LgBiT subunit having high affinity to a HiBiT-tagged protein will bind HiBiT, if present, resulting in complex formation of a luminescent NanoBiT® enzyme. This reaction will emit a luminescent signal proportional to the amount of HiBiT-tagged BCL-xL present in the cell lysate. Plates were incubated at room temperature for 20 minutes to stabilize luminescent signals prior to reading using a luminescence reader (PHERAstar FSX Microplate Reader, BMG Labtech).
To evaluate the effect of the drug treatments, luminescent counts from wells containing untreated cells (100% HiBiT-tagged BCL-xL) were used to normalize treated samples. The concentrations of treatment required to inhibit 50% were calculated using a four parameter logistic regression equation.

The subject of the next assay is MOLT-4 cells. Briefly: MOLT-4 cell viability, CTG assay. The following applies: Homo sapiens, MOLT-4, 48 h. The essentials:
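Cells grown in RPMI 1640 with 10% FBS at 37° C, 5% CO2, then exposed to compounds for 48 h (11-point 5-fold dilution, triplicates). ATP measured by CellTiter-Glo luminescence; IC50 from four-parameter fit versus control, mean of ≥2 independent experiments.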

Another assay addresses T2, Bcl-xL (Homo sapiens, UniProt Q07817).
T2 construct: Measured levels of Bcl-xL protein of HCT116 cells treated with the tested compounds; host or cells: HCT116
As to the kind of experiment: HCT116 Bcl-xL degradation, capillary-based immunoassay (WES). The following applies: HCT116, 24 h, 9-point serial dilution. The essentials:
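HCT116 cells treated 24 h with compound at 10/100 nM and/or 9-point dilution (quadruplicates), then lysed. Bcl-xL measured by capillary WES immunoassay, normalized to cofilin and expressed as % of untreated cells. DC50 from four-parameter curve fit.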

T2 sequence (Q07817 whole entry): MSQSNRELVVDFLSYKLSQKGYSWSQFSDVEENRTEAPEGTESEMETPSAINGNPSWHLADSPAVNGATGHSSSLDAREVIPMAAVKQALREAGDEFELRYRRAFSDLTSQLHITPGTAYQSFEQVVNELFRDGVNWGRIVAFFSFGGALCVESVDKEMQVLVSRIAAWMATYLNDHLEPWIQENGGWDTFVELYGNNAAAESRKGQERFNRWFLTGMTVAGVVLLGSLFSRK
T1 sequence (Q07817 whole entry): as above

The GI50 is the concentration that inhibits growth by half. Consider `Cc1cc(N(CCCCN(C)C(=O)CCCCCCCCCCCCSC(C)(C)[C@H](NC(=O)C2(F)CC2)C(=O)N2C[C@H](O)C[C@H]2C(=O)NCc2ccc(-c3scnc3C)cc2)c2ccc(-c3cnn(CC45CC6(C)CC(C)(C4)CC(OCCN(C)C)(C6)C5)c3C)c(C(=O)O)n2)nnc1Nc1nc2ccccc2s1` [Example 127, 6-[[6-(1,3-benzothiazol-2-ylamino)-5-methyl-pyridazin-3-yl]-[4-[13-[(2R)-2-[(1-fluorocyclopropanecarbonyl)amino]-3-[(2S,4R)-4-hydroxy-2-[[4-(4-methylthiazol-5-yl)phenyl]methylcarbamoyl]pyrrolidin-1-yl]-1,1-dimethyl-3-oxo-propyl]sulfanyltridecanoyl-methyl-amino]butyl]amino]-3-[1-[[3-[2-(dimethylamino)ethoxy]-5,7-dimethyl-1-adamantyl]methyl]-5-methyl-pyrazol-4-yl]pyridine-2-carboxylic acid], for which the GI50 in assay [1] stood at 462 nM. The DC50 at HiBiT-tagged BCL-xL came out at 33 nM.
Regarding `Cc1ncsc1-c1ccc([C@H](C)NC(=O)[C@@H]2C[C@@H](O)CN2C(=O)[C@@H](NC(=O)CCOCCOCCOCCN(C)C(=O)c2nc(N3CCCc4c3nnc(Nc3nc5ccccc5s3)c4C)ccc2-c2cnn(CC34CC5(C)CC(C)(C3)CC(OCCN3CCCC3)(C5)C4)c2C)C(C)(C)C)cc1` [Example 160, 6-(3-(benzo[d]thiazol-2-ylamino)-4-methyl-6,7-dihydropyrido[2,3-c]pyridazin-8(5H)-yl)-3-(1-(((1r,3R,5S,7s)-3,5-dimethyl-7-(2-(pyrrolidin-1-yl)ethoxy)adamantan-1-yl)methyl)-5-methyl-1H-pyrazol-4-yl)-N—((S)-14-((2S,4R)-4-hydroxy-2-(((S)-1-(4-(4-methylthiazol-5-yl)phenyl)ethyl)carbamoyl)pyrrolidine-1-carbonyl)-15,15-dimethyl-12-oxo-3,6,9-trioxa-13-azahexadecyl)-N-methylpicolinamide], the GI50 in assay [1] is 58 nM. Further, the DC50 on HiBiT-tagged BCL-xL came to 2 nM.
As a reminder, the IC50 is the midpoint of a concentration-inhibition curve. Molecule `Cc1cc(N(CCCCN(C)C(=O)CCCCCCCCCCNc2cccc3c2C(=O)N(C2CCC(=O)NC2=O)C3=O)c2ccc(-c3cnn(CC45CC6(C)CC(C)(C4)CC(OCCN(C)C)(C6)C5)c3C)c(C(=O)O)n2)nnc1Nc1nc2ccccc2s1` (centres unmarked) [Example 90, 6-[[6-(1,3-benzothiazol-2-ylamino)-5-methyl-pyridazin-3-yl]-[4-[11-[[2-(2,6-dioxo-3-piperidyl)-1,3-dioxo-isoindolin-4-yl]amino]undecanoyl-methyl-amino]butyl]amino]-3-[1-[[3-[2-(dimethylamino)ethoxy]-5,7-dimethyl-1-adamantyl]methyl]-5-methyl-pyrazol-4-yl]pyridine-2-carboxylic acid] yielded an IC50 in the assay with MOLT-4 cells of 16.8 nM. On Bcl-xL, this molecule gave a DC50 of 1.33 nM.
`Cc1c(Nc2nc3ccccc3s2)nnc2c1CCCN2c1ccc(-c2cnn(CC34CC5(C)CC(C)(C3)CC(OCCN(C)CCCCCCCCCCCCCCOc3ccc6c(c3)C(=O)N(C3CCC(=O)NC3=O)C6=O)(C5)C4)c2C)c(C(=O)O)n1` (centres unmarked) [Example 142, 6-[3-(1,3-benzothiazol-2-ylamino)-4-methyl-6,7-dihydro-5H-pyrido[2,3-c]pyridazin-8-yl]-3-[1-[[3-[2-[14-[2-(2,6-dioxo-3-piperidyl)-1,3-dioxo-isoindolin-5-yl]oxytetradecyl-methyl-amino]ethoxy]-5,7-dimethyl-1-adamantyl]methyl]-5-methyl-pyrazol-4-yl]pyridine-2-carboxylic acid]: the IC50 with MOLT-4 cells is 3.76 nM. The same molecule returned a DC50 on Bcl-xL of 0.341 nM.
`Cc1c(Nc2nc3ccccc3s2)nnc2c1CCCN2c1ccc(-c2cnn(CC34CC5(C)CC(C)(C3)CC(OCCN(C)CCCCCCCCCCCC(=O)N3CCC(c6ccc7c(c6)CN(C6CCC(=O)NC6=O)C7=O)CC3)(C5)C4)c2C)c(C(=O)O)n1` (centres unmarked) [Example 69, 6-[3-(1,3-benzothiazol-2-ylamino)-4-methyl-6,7-dihydro-5H-pyrido[2,3-c]pyridazin-8-yl]-3-[1-[[3-[2-[[12-[4-[2-(2,6-dioxo-3-piperidyl)-1-oxo-isoindolin-5-yl]-1-piperidyl]-12-oxo-dodecyl]-methyl-amino]ethoxy]-5,7-dimethyl-1-adamantyl]methyl]-5-methyl-pyrazol-4-yl]pyridine-2-carboxylic acid] came in with an IC50 with MOLT-4 cells of 5.14 nM. The same molecule yielded a DC50 on Bcl-xL of 0.711 nM.
As to `Cc1c(Nc2nc3ccccc3s2)nnc2c1CCCN2c1ccc(-c2cnn(CC34CC5(C)CC(C)(C3)CC(OCCN(C)CCCCCCCCC(=O)N3CCC(c6ccc7c(c6)CN(C6CCC(=O)NC6=O)C7=O)CC3)(C5)C4)c2C)c(C(=O)O)n1` (centres unmarked) [Example 71, 6-[3-(1,3-benzothiazol-2-ylamino)-4-methyl-6,7-dihydro-5H-pyrido[2,3-c]pyridazin-8-yl]-3-[1-[[3-[2-[[9-[4-[2-(2,6-dioxo-3-piperidyl)-1-oxo-isoindolin-5-yl]-1-piperidyl]-9-oxo-nonyl]-methyl-amino]ethoxy]-5,7-dimethyl-1-adamantyl]methyl]-5-methyl-pyrazol-4-yl]pyridine-2-carboxylic acid], the IC50 in the assay with MOLT-4 cells worked out at 10.2 nM. The DC50 on Bcl-xL is > 316 nM.
On the same counts, the results for `Cc1c(Nc2nc3ccccc3s2)nnc2c1CCCN2c1ccc(-c2cnn(CC34CC5(C)CC(C)(C3)CC(OCCN(C)CCCCCCCCCCCCCCCCOc3ccc6c(c3)C(=O)N(C3CCC(=O)NC3=O)C6=O)(C5)C4)c2C)c(C(=O)O)n1` (centres unmarked) [Example 147, 6-[3-(1,3-benzothiazol-2-ylamino)-4-methyl-6,7-dihydro-5H-pyrido[2,3-c]pyridazin-8-yl]-3-[1-[[3-[2-[16-[2-(2,6-dioxo-3-piperidyl)-1,3-dioxo-isoindolin-5-yl]oxyhexadecyl-methyl-amino]ethoxy]-5,7-dimethyl-1-adamantyl]methyl]-5-methyl-pyrazol-4-yl]pyridine-2-carboxylic acid] are 5.34 nM and > 316 nM.
